Assays:
Format in all cases: biochemical
IGFR-1 = target: T1, IGFR-1 (Homo sapiens, UniProt P08069); test: Kinase inhibition assay (33P transfer), IGFR-1; conditions: Table 2, kinase inhibition class
T1 construct: Kinases are expressed as either kinase domains or full length constructs; made in house

EPHB4 = target: T2, EPHB4 (Homo sapiens, UniProt P54760); test: Kinase inhibition assay (33P transfer), EPHB4; conditions: read-out: EPHB4-1
T2 construct: Kinases are expressed as either kinase domains or full length constructs; made in house
T2 sequence (P54760 16-987): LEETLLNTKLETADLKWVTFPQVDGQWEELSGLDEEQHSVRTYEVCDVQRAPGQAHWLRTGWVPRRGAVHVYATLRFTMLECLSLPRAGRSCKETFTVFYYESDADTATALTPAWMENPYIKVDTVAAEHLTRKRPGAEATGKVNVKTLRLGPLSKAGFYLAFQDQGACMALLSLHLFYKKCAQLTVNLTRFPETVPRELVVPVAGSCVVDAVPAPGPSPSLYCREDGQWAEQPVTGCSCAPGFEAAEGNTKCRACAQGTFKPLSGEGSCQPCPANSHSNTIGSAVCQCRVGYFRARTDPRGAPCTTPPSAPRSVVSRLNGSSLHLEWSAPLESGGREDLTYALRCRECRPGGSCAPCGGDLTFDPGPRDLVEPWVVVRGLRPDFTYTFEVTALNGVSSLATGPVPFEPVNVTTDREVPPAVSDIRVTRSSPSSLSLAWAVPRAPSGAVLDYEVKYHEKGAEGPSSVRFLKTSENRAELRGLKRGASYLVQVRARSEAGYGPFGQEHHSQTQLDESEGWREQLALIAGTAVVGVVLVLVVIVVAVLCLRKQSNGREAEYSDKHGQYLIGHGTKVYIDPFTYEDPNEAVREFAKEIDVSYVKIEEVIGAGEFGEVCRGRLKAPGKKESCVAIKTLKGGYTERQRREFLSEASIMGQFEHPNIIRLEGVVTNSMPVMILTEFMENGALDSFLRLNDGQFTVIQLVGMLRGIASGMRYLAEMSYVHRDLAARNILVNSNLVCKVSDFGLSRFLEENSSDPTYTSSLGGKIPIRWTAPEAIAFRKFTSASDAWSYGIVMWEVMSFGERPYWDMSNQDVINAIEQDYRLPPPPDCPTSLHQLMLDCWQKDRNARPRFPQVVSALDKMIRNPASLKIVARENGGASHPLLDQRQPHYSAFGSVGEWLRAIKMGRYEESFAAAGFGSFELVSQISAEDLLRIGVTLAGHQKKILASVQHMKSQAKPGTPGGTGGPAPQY

Zap-70 = target: T3, Zap-70 (Homo sapiens, UniProt P43403); test: Kinase inhibition assay (33P transfer), Zap-70; conditions: Table 3; read-out: Zap-1
T3 construct: Kinases are expressed as either kinase domains or full length constructs; made in house
T3 sequence (P43403 1-619): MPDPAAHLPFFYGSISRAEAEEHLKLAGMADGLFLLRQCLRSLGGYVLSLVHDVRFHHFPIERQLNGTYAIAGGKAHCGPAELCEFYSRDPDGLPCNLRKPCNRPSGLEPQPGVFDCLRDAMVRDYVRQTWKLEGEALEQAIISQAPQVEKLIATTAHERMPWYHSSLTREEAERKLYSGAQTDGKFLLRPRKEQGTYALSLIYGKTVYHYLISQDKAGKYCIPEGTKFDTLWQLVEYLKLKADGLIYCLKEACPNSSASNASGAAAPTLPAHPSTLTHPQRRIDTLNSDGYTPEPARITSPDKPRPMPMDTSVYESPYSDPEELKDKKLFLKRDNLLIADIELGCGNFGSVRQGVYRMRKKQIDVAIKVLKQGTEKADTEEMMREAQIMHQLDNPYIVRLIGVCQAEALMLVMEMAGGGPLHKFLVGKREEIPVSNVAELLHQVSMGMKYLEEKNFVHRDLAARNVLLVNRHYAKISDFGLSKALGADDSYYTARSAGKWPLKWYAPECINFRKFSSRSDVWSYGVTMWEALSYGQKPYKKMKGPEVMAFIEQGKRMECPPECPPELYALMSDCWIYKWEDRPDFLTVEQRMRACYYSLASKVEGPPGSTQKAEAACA
Procedure, shortened: (§1)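 Liquid scintillation counting of 33P on plate-bound synthetic substrates gives kinase activity. Plates are washed in 0.5% phosphoric acid first; kinases are tagged recombinant proteins from E. coli or baculovirus-infected High Five cells.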

Fyn = target: T4, Fyn (Homo sapiens, UniProt P06241); test: Kinase inhibition assay (33P transfer), Fyn; conditions: read-out: Fyn-1
T4 construct: Kinases are expressed as either kinase domains or full length constructs; made in house
T4 sequence (P06241 whole entry, species assumed, the tested form may be a part): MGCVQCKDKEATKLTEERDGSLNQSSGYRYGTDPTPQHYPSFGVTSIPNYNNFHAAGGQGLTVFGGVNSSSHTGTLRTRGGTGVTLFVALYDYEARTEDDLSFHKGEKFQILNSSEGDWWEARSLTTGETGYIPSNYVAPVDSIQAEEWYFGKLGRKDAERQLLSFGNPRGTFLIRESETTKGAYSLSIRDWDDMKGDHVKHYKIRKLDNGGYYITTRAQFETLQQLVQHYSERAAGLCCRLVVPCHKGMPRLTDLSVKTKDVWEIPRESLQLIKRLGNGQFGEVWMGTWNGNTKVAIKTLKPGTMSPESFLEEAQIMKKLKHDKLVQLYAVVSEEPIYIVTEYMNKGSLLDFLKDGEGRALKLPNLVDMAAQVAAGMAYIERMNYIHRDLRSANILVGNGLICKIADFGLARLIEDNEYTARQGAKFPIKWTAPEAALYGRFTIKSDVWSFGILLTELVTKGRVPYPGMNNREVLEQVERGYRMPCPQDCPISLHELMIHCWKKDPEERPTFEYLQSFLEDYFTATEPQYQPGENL
Procedure, shortened: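 Activity read as 33P incorporation from ATP into poly(Glu,Tyr) 4:1 or poly(Arg,Ser) 3:1 substrate bound to microtiter plates, measured by scintillation after acid washing. Enzymes were affinity-purified GST or polyHis fusions (kinase domain or full length) from E. coli or baculovirus; IC50 = 50% reduction in labelled phosphate.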

Kdr = target: T5, Kdr (Homo sapiens, UniProt P35968); test: Kinase inhibition assay (33P transfer), Kdr; conditions: Table 3; read-out: KDR-1
T5 construct: Kinases are expressed as either kinase domains or full length constructs; made in house
T5 sequence (P35968 20-1356, species assumed): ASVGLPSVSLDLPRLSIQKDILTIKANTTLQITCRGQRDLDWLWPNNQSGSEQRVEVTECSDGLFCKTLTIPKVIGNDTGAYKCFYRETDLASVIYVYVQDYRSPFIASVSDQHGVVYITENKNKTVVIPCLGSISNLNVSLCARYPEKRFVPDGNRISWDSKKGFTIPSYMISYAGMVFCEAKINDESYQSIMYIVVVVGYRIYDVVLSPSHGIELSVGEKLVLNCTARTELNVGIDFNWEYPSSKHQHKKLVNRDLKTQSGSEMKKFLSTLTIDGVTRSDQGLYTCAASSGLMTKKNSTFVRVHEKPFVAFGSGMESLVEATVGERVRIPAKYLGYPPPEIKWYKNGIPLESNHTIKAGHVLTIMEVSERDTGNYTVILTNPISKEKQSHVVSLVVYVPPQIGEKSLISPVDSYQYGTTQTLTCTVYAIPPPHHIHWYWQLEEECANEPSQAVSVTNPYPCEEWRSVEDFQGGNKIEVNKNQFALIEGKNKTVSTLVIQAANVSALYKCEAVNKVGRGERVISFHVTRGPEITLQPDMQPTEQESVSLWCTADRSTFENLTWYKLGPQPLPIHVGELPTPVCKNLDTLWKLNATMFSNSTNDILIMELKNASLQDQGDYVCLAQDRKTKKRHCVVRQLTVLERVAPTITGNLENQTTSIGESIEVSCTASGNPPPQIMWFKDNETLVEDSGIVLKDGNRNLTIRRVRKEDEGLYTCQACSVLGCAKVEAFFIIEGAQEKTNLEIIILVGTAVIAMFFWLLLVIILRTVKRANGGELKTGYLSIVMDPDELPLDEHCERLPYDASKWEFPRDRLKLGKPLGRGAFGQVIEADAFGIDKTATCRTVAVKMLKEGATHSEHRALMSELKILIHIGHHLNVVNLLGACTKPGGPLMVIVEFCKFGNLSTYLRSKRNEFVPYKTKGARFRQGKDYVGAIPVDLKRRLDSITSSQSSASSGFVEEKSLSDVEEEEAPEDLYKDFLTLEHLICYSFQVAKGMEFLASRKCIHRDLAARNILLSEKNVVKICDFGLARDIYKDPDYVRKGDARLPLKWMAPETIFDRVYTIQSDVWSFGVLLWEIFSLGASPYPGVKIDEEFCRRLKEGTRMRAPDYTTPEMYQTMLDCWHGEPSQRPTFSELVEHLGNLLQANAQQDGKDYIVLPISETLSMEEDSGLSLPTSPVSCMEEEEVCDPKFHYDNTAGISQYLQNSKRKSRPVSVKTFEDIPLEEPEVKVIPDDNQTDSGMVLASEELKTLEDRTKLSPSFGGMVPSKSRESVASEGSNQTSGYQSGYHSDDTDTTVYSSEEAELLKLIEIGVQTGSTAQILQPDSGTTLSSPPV
Procedure, shortened: as §1

PDGFRB = target: T6, PDGFRB (Homo sapiens, UniProt P09619); test: Kinase inhibition assay (33P transfer), PDGFRB; conditions: read-out: PDGFRB-1
T6 construct: Kinases are expressed as either kinase domains or full length constructs; made in house
T6 sequence (P09619 33-1106, species assumed): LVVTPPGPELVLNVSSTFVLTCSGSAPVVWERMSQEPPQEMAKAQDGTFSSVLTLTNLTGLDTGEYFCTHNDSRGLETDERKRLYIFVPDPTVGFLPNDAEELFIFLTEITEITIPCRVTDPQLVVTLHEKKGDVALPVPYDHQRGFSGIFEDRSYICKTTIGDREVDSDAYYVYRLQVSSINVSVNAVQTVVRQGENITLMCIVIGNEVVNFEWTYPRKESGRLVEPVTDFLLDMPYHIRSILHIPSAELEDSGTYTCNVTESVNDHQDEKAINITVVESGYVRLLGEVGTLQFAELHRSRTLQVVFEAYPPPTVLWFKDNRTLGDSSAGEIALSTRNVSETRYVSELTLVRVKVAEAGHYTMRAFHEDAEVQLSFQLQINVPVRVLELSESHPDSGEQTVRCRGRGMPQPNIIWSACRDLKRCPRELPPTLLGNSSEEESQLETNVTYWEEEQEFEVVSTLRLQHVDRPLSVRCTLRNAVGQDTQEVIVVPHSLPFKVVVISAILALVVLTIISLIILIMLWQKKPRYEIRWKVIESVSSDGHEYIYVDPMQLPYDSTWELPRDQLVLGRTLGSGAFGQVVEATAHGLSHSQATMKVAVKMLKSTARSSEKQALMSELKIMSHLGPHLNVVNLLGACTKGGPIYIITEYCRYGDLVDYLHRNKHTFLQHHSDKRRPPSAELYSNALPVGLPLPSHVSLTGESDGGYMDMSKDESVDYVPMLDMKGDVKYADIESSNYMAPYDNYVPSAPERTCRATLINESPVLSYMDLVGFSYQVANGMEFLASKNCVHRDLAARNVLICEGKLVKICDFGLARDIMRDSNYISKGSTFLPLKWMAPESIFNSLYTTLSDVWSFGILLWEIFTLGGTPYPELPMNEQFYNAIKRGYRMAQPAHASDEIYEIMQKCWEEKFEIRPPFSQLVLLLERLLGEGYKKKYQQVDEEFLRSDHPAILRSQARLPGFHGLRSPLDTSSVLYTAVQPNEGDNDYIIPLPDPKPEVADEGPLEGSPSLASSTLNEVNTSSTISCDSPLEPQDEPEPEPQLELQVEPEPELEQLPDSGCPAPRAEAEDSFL

T1 sequence (P08069 31-1367): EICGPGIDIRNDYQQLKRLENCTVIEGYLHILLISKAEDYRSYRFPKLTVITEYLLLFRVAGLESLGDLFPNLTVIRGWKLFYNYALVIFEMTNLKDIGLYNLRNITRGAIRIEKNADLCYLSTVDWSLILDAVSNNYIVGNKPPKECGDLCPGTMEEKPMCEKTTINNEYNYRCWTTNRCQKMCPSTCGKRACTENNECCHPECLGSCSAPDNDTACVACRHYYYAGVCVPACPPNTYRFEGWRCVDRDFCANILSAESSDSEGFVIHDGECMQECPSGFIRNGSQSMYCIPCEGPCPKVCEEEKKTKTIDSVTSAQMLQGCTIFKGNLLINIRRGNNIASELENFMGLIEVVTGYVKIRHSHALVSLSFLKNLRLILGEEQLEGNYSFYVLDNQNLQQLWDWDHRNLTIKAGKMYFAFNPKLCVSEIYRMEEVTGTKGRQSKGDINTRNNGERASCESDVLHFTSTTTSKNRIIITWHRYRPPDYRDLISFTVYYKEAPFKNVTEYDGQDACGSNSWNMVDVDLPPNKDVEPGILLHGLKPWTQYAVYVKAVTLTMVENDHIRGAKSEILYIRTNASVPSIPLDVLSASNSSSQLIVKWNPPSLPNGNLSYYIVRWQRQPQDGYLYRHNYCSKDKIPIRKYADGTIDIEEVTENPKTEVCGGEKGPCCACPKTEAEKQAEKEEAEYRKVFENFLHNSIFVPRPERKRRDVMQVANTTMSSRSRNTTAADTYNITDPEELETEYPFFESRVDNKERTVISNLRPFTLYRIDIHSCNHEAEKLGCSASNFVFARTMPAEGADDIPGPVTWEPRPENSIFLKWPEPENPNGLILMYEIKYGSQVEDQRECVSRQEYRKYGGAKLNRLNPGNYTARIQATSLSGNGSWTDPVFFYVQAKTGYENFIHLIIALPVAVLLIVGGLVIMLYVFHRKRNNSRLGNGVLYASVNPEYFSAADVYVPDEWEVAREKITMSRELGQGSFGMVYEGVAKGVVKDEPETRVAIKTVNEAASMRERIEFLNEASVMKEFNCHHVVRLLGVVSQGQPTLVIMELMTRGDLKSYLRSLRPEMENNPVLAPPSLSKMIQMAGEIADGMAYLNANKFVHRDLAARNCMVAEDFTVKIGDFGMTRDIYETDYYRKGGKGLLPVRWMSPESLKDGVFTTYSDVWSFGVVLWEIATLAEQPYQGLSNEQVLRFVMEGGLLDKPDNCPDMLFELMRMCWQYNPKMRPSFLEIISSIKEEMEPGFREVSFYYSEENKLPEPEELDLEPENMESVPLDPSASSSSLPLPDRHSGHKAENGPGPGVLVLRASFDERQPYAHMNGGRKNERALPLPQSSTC

SMILES | IC50 (IGFR-1) [µM] | IC50 (EPHB4) [µM] | IC50 (Zap-70) [µM] | IC50 (Fyn) [µM] | IC50 (Kdr) [µM] | IC50 (PDGFRB) [µM]
COc1cc(Nc2ncnc(-c3c(O)[nH]c4ccccc34)n2)cc(OC)c1OC [Compound 380] | 6.1 to 8.9 | > 11.4 | > 11.4 | 1.02 to 6.1 | < 1.02 | < 1.02
COc1cc(Nc2ncnc(NC(=O)Nc3ccccc3)n2)cc(OC)c1OC [Compound 852] | < 1.01 | > 11.4 | 8.83 to 11.4 | > 11.4 | 6.05 to 8.83 | 8.83 to 11.4
COc1cc(Nc2ncnc(Nc3ccc(OCc4ccccc4)cc3)n2)cc(OC)c1OC [Compound 926] | > 9.79 | > 9.79 | 5.22 to 7.62 | 5.22 to 7.62 | < 0.871 | < 0.871
COc1cccc(-c2ncnc(Nc3cc(OC)c(OC)c(OC)c3)n2)c1 [Compound 232] | > 12.2 | > 12.2 | > 12.2 | > 12.2 | 1.09 to 6.51 | 
COc1cc(Nc2ncnc(Nc3ccc(N4CCOCC4)cc3)n2)cc(OC)c1OC [Compound 101] | > 10.3 | > 10.3 | > 10.3 | 0.912 to 5.47 | 0.912 to 5.47 | 
COc1cc(Nc2ncnc(Nc3cc(-c4ccccc4)nn3C)n2)cc(OC)c1OC [Compound 394] | 0.923 to 5.54 | 5.54 to 8.07 | > 10.4 | 0.923 to 5.54 | < 0.923 | 0.923 to 5.54
COc1ccc(Nc2ncnc(Nc3cc(OC)c(OC)c(OC)c3)n2)cc1 [Compound 89] | 1.04 to 6.26 | > 11.7 | > 11.7 | 1.04 to 6.26 | < 1.04 | < 1.04
COc1cc(Nc2ncnc(Nc3ccc4c(c3)Cc3ccccc3-4)n2)cc(OC)c1OC [Compound 95] | 0.906 to 5.44 | 7.93 to 10.2 | 7.93 to 10.2 | 0.906 to 5.44 | 0.906 to 5.44 | 
COc1cc(Nc2ncnc(Nc3cc(C)[nH]n3)n2)cc(OC)c1OC [Compound 88] | 1.12 to 6.72 | 1.12 to 6.72 | > 12.6 | 1.12 to 6.72 | < 1.12 | 
COc1cc(Nc2ncnc(Nc3ccc(Oc4ccccc4)cc3)n2)cc(OC)c1OC [Compound 29] | 5.39 to 7.86 | > 10.1 | > 10.1 | < 0.898 | < 0.898 | 0.898 to 5.39
COc1cc(Nc2ncnc(-c3ccnc(NCCCO)c3)n2)cc(OC)c1OC [Compound 180] | > 10.9 | > 10.9 | > 10.9 | 5.82 to 8.49 | 0.97 to 5.82 | 8.49 to 10.9
COc1cc(Nc2ncnc(Nc3cccc(C)c3)n2)cc(OC)c1OC [Compound 64] | < 1.09 | 1.09 to 6.53 | 9.53 to 12.2 | 1.09 to 6.53 | 1.09 to 6.53 | 9.53 to 12.2
COc1cc(Nc2ncnc(-n3c(Nc4cccc(C)c4)nc4ccccc43)n2)cc(OC)c1OC [Compound 386] | > 9.31 | > 9.31 | > 9.31 | > 9.31 | < 0.827 | 0.827 to 4.96
COc1cc(Nc2ncnc(Nc3cccc4ccccc34)n2)cc(OC)c1OC [Compound 98] | > 11.2 | > 11.2 | > 11.2 | 0.991 to 5.95 | < 0.991 | > 11.2
COc1cc(Nc2ncnc(Nc3ccc4ccccc4c3)n2)cc(OC)c1OC [Compound 96] |  | > 11.2 | 8.68 to 11.2 | 8.68 to 11.2 | 0.991 to 5.95 | 0.991 to 5.95
COC(=O)c1cccc(Nc2nc3ccccc3n2-c2ncnc(Nc3cc(OC)c(OC)c(OC)c3)n2)c1 [Compound 383] | > 8.53 | > 8.53 | > 8.53 |  | 0.758 to 4.55 | 

The next lines start with the values.

IC50 (IGFR-1) [µM] | IC50 (EPHB4) [µM] | IC50 (Zap-70) [µM] | IC50 (Fyn) [µM] | IC50 (Kdr) [µM] | IC50 (PDGFRB) [µM] | SMILES
< 1.06 | < 1.06 | > 11.9 | > 11.9 | 1.06 to 6.36 |  | C#Cc1cccc(Nc2ncnc(Nc3cc(OC)c(OC)c(OC)c3)n2)c1 [Compound 74]
< 0.925 | < 0.925 | 8.1 to 10.4 | 0.925 to 5.55 | 0.925 to 5.55 | > 10.4 | COc1cc(Nc2ncnc(Nc3cccc(Br)c3)n2)cc(OC)c1OC [Compound 75]
 | < 0.989 | > 11.1 | 0.989 to 5.93 | < 0.989 | 0.989 to 5.93 | COc1cc(Nc2ncnc(Nc3cnc4ccccc4c3)n2)cc(OC)c1OC [Compound 99]
1.06 to 6.36 | 1.06 to 6.36 | > 11.9 | > 11.9 | < 1.06 | 6.36 to 9.27 | COC(=O)c1cccc(Nc2ncnc(Nc3cc(-c4ccco4)n[nH]3)n2)c1 [Compound 344]
6.04 to 8.81 | 1.01 to 6.04 | > 11.3 | < 1.01 | < 1.01 | 1.01 to 6.04 | COc1cc(Nc2ncnc(Nc3cc(C)c(O)cc3C)n2)cc(OC)c1OC [Compound 94]
4.68 to 6.83 | 0.78 to 4.68 | 0.78 to 4.68 | > 8.78 | 0.78 to 4.68 | < 0.78 | COc1cc(Nc2ncnc(-n3c(Nc4cccc(C(N)=O)c4)nc4ccccc43)n2)cc(OC)c1OC [Compound 377]
< 1.03 | 1.03 to 6.19 | > 11.6 |  | < 1.03 | < 1.03 | COc1cc(Nc2ncnc(Nc3ccc(Cl)cc3)n2)cc(OC)c1OC [Compound 72]
< 1.02 | 1.02 to 6.1 | > 11.4 | 1.02 to 6.1 | < 1.02 | < 1.02 | COc1cc(Nc2ncnc(-n3c(N)nc4ccccc43)n2)cc(OC)c1OC [Compound 289]
0.902 to 5.41 | 0.902 to 5.41 | > 10.1 | 0.902 to 5.41 | 0.902 to 5.41 |  | COc1cc(Nc2ncnc(Nc3cc(OC)c(OC)c(OC)c3)n2)cc(OC)c1OC [Compound 76]
< 0.881 | 0.881 to 5.29 | > 9.91 | 0.881 to 5.29 | < 0.881 | > 9.91 | COc1cc(Nc2ncnc(Nc3cc(-c4ccc(Cl)cc4)n[nH]3)n2)cc(OC)c1OC [Compound 367]
0.991 to 5.94 | 0.991 to 5.94 | > 11.1 | 0.991 to 5.94 | < 0.991 | < 0.991 | COc1cc(Nc2ncnc(Nc3ccc(O)cc3Cl)n2)cc(OC)c1OC [Compound 77]
< 1.02 | < 1.02 | > 11.5 | > 11.5 | < 1.02 | < 1.02 | COc1cc(Nc2ncnc(Nc3ccc4[nH]ccc4c3)n2)cc(OC)c1OC [Compound 928]
0.925 to 5.55 | 0.925 to 5.55 | > 10.4 |  | < 0.925 | < 0.925 | COc1cc(Nc2ncnc(Nc3ccc(Br)cc3)n2)cc(OC)c1OC [Compound 82]
